Measured values reported in patent US9474730B2, “Methods and compositions for use with K-ras mediated disorders” (Board of Regents of the University of Texas System, priority 2012, dated 2016).
Where a name gives a salt, the structure may show the parent alone.

Experiments:
[1] = target: T1, GFP-CTK (mGFP-tagged C-terminal region of K-ras) in MDCK cells (Homo sapiens, UniProt P01116); assay: High throughput cell-based screen: plasma membrane localization of GFP-CTK; parameters: species or system canine; conditions: fendiline HCl 4 ug/ml, 48 h, MDCK
T1 construct: hypervariable region of K-ras (amino acids 166-188) cloned onto the carboxy terminus of GFP; expressed in transfected cells
T1 sequence (P01116 166-188 isoform P01116-2 limits assumed): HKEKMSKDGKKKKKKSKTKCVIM
Method: FIG. 1: Illustrates results of a high throughput cell-based screening of chemical libraries: Madin-Darby Canine Kidney epithelial cells (MDCK) expressing monomeric green fluorescent protein (mGFP)-tagged C-terminal region of K- or H-ras (GFP-CTK and GFP-CTH) were seeded in 96 well plates and treated with drug libraries for 48 h. Cells were then fixed with paraformaldehyde and imaged by BD Pathway Imager in confocal mode; shown are representative images of cells treated with vehicle, […], and 10 μM FTI-276; wherein experimentation was performed in accordance with principles described herein;
In accordance with some embodiments described herein, wild type MDCK cells or MDCK cells expressing monomeric green fluorescent protein (mGFP)-tagged C-terminal region of K-ras or H-ras (GFP-CTK and GFP-CTH respectively) were seeded in triplicate in 96 well plates (Matrical) at a density of 30,000 cells/well and incubated for 24 h at 37° C. Compounds were individually added to test cells at a concentration of 4 μg/mL (concentration of DMSO 1%) and incubated for a further 48 h.
Cells were then fixed with 4% paraformaldehyde and stored in PBS at 4° C. until imaged. Plates were imaged using a BD Pathway High-Throughput Bioimager. Images were acquired by a 3×3 montage with 20× objective lens using GFP-confocal mode. […]

[2] = target: T2, GFP-H-rasG12V in MDCK or BHK cells (Homo sapiens, UniProt P01112, G12V); assay: Cellular fractionation (P100/S100) with quantitative Western blotting, GFP-H-rasG12V; assay type: cell-based, canine (MDCK), hamster (BHK); conditions: 4 μg/mL for MDCK and 6 μg/mL for BHK, 48 hours, vs vehicle
T2 construct: MDCK and BHK cells expressing GFP-tagged full length constitutively active Ras (G12V) proteins; expressed in transfected cells
Method: . Following treatment, membrane (P100) and soluble (S100) protein fractions were prepared and analyzed by quantitative Western blotting. Shown are representative Western blots (showing GFP-Ras) of membrane and soluble protein fractions from 3 independent experiments.
(§1) Preparation of whole-cell lysates: cells were lysed in Buffer B (50 mM Tris [pH 7.5], 75 mM NaCl, 25 mM NaF, 5 mM MgCl2, 5 mM EGTA, 1 mM dithiothreitol, 100 μM NaVO4, 1% Nonidet P-40 plus protease inhibitors). Cellular fractionation: cells were incubated in Buffer A (10 mm Tris-HCl, pH 7.5, 25 mm NaF, 5 mm MgCl2, 1 mm EGTA, 1 mm dithiothreitol, 100 μm NaVO4 plus protease inhibitors) for 30 minutes on ice and lysed by passing through a 27 G needle 30 times. The post nuclear supernatant was centrifuged at 100,000 g for 30 minutes and the membrane pellet was resuspended in Buffer A containing 1% Triton X-100.
(§2) Quantification of intensities was performed using FluorChemQ software.

[3] = system: BHK cells stably expressing K-rasG12V; assay: Signaling downstream of oncogenic K-ras by quantitative Western blotting; assay type: cell-based, hamster; conditions: 6 μg/mL, 48 h, K-rasG12V BHK cells
Method: FIG. 5: Illustrates that fendiline HCl inhibits Raf kinase activity and signaling downstream of oncogenic K-ras: BHK cells stably expressing K-rasG12V were treated with vehicle or fendiline HCl (6 μg/mL) for 48 h. (A) Raf kinase activity in membrane fractions prepared from the cells was measured in a coupled […] kinase assay. Data is shown as mean±SEM from 3 independent experiments. (B) ppMEK and ppERK in soluble protein fraction and pAkt levels in membrane protein fraction were measured by quantitative Western blotting. Actin and Akt were used as loading controls for soluble and membrane fractions, respectively. A representative blots are shown. Data is shown as mean±SEM from 3-4 independent experiments. Statistical significance was calculated using one way ANOVA and Student's T-test. (*=p<0.05), wherein experimentation was performed in accordance with principles described herein;
as §1, §2

[4] = system: cells expressing constitutively active N-Ras; assay: Signaling downstream of oncogenic N-ras; assay type: cell-based; conditions: data not shown
Method: as §1, §2

[5] = system: human oral cancer cells, PC3 prostate cancer cells and MDCK cells; conditions: cited from earlier work

CC(NCCC(c1ccccc1)c1ccccc1)c1ccccc1 (stereo not shown) [fendiline HCl]
localization of GFP-CTK [1]: specifically affected localization of GFP-CTK | localization of GFP-H-rasG12V (fractionation) [2]: does not alter the localization of GFP-H-rasG12V | pAkt levels ([3]; membrane fraction): decreases the pAkt levels, although not statistically significant | cellular levels of pERK ([3]; vs vehicle): significantly reduces | cellular levels of pMEK ([3]; vs vehicle): significantly reduces | signaling downstream of oncogenic N-ras [4]: had no effect on signaling downstream of oncogenic N-ras | intracellular Ca2+ [5]: increase intracellular Ca^2+
